From ChEMBL document CHEMBL1149542, “Carbonic anhydrase inhibitors: inhibition of human, bacterial, and archaeal isozymes with benzene-1,3-disulfonamides--solution and crystallographic studies” (Bioorg Med Chem Lett, 2007)

Legend:
[1] = tested on: Methanosarcina thermophila
Description: Inhibition of Methanosarcina thermophila gamma CA

[2] = tested on: Helicobacter pylori
Description: Inhibition of Helicobacter pylori alpha CA

[3] = tested on: Helicobacter pylori; remark: listed apart in the source
Description: Inhibition of Helicobacter pylori beta CA

[4] = target: Carbonic anhydrase 5A, mitochondrial (Homo sapiens) (UniProt P35218)
[5] = target: Carbonic anhydrase 7 (Homo sapiens) (UniProt P43166)
Sequence of Carbonic anhydrase 7 (Homo sapiens) (P43166 whole entry): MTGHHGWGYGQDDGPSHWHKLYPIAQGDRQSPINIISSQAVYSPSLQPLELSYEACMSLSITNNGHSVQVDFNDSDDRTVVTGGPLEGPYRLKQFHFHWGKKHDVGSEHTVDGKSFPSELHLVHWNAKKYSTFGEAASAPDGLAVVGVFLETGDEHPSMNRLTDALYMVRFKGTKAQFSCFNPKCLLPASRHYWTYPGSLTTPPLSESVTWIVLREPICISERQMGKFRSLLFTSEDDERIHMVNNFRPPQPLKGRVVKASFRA

[6] = target: Carbonic anhydrase 1 (Homo sapiens) (UniProt P00915)
Sequence of Carbonic anhydrase 1 (Homo sapiens) (P00915 2-261 limits assumed): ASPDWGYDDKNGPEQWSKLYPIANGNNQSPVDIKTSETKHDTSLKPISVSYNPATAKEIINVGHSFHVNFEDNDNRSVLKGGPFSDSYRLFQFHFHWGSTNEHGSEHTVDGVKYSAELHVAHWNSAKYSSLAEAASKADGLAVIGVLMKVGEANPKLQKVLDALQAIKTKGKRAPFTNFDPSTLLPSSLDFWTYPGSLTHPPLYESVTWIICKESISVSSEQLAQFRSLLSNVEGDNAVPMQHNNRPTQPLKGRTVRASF

[7] = target: Carbonic anhydrase 6 (Homo sapiens) (UniProt P23280)
Sequence of Carbonic anhydrase 6 (Homo sapiens) (P23280 whole entry): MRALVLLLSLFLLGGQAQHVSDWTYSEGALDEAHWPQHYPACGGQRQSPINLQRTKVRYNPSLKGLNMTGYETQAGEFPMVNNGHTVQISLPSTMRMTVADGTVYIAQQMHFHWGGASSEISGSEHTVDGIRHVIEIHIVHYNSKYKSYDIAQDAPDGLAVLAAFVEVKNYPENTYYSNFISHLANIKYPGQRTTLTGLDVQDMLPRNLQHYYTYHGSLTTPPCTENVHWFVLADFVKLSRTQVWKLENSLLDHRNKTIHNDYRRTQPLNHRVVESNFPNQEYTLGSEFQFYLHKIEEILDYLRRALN

[8] = target: Carbonic anhydrase 5B, mitochondrial (Homo sapiens) (UniProt Q9Y2D0)
Sequence of Carbonic anhydrase 5B, mitochondrial (Homo sapiens) (Q9Y2D0 whole entry): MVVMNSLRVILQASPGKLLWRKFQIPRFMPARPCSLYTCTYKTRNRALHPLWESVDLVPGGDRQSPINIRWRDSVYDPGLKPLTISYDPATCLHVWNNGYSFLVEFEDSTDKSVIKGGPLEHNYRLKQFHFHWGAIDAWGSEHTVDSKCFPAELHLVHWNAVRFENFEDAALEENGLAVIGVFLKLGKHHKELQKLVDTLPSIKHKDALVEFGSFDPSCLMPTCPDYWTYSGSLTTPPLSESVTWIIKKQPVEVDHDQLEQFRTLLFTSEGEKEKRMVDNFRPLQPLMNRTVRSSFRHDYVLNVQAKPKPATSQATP

[9] = target: Carbonic anhydrase 14 (Homo sapiens) (UniProt Q9ULX7)
Sequence of Carbonic anhydrase 14 (Homo sapiens) (Q9ULX7 whole entry): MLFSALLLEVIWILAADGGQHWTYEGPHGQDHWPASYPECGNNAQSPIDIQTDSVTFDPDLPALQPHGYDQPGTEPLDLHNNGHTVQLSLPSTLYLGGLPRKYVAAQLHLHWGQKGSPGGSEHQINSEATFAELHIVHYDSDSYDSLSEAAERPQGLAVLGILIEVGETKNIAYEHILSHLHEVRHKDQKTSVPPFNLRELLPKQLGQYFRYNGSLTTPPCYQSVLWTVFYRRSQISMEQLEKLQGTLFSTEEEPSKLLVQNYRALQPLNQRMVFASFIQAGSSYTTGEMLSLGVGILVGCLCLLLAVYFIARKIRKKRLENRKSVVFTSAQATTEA

[10] = target: Carbonic anhydrase 13 (Mus musculus) (UniProt Q9D6N1); assay: Inhibition of mouse CA13
Sequence of Carbonic anhydrase 13 (Mus musculus) (Q9D6N1 whole entry, looked up): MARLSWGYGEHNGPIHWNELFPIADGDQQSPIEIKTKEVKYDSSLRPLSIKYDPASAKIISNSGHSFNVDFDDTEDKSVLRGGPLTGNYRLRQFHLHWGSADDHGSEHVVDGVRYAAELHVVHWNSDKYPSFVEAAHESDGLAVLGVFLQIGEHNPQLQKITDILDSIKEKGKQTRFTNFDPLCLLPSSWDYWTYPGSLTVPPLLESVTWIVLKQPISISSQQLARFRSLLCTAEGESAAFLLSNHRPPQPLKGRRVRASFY

[11] = target: Carbonic anhydrase 4 (Homo sapiens) (UniProt P22748)
Sequence of Carbonic anhydrase 4 (Homo sapiens) (P22748 whole entry): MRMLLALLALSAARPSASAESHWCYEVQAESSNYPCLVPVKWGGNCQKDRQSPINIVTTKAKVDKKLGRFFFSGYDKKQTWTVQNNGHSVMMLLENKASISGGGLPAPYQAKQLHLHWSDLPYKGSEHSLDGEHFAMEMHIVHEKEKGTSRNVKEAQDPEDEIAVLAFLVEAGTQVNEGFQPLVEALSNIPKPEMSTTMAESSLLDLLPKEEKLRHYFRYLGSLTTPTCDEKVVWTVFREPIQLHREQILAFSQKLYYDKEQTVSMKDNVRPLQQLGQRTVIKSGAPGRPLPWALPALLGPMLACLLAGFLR

[12] = target: Carbonic anhydrase 9 (Homo sapiens) (UniProt Q16790)
Description: Inhibition of human CA9 catalytic domain

[13] = target: Carbonic anhydrase 12 (Homo sapiens) (UniProt O43570)
Sequence of Carbonic anhydrase 12 (Homo sapiens) (O43570 whole entry): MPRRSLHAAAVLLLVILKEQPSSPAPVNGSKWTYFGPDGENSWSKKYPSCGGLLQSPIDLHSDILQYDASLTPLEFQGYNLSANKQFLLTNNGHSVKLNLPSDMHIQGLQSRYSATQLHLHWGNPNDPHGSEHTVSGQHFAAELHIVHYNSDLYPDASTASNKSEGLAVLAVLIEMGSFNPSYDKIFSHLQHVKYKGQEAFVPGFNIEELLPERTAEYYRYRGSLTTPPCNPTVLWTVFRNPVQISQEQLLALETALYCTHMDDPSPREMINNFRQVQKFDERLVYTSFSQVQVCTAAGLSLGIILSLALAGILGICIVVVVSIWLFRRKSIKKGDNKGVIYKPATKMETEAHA

Sequence of Carbonic anhydrase 5A, mitochondrial (Homo sapiens) (P35218 whole entry): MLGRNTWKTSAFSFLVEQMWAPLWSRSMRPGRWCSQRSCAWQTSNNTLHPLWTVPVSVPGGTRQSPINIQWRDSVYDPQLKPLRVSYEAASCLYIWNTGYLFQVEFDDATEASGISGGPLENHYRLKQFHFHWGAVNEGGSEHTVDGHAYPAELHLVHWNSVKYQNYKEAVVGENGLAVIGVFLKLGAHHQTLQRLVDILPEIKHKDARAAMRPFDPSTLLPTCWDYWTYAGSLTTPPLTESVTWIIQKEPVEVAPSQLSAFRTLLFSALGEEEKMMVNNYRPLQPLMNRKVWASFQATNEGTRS

Work on CC(=O)/N=c1/sc(S(N)(=O)=O)nn1C yielded a Kinact [1] of 140 nM, a Kinact [2] of 225 nM and a Kinact [3] of 176 nM.

In the case of NS(=O)(=O)c1cc(C(=O)O)c(NCC2CCCO2)cc1Cl (stereo unspecified), the Kinact [4] is reported as 499 nM, the Kinact [5] is reported as 513 nM and the Kinact [6] is reported as 62 nM.

CCN[C@H]1CN(CCCOC)S(=O)(=O)c2sc(S(N)(=O)=O)cc21 gave a Kinact [4] of 50 nM, a Kinact [1] of 460 nM and a Kinact [7] of 0.9 nM. For the same molecule, the Kinact [8] was 30 nM, the Kinact [9] was 24 nM and the Kinact [2] was 210 nM. The Kinact [3] was 128 nM.

For NS(=O)(=O)c1cc2c(cc1Cl)NC(C(Cl)Cl)NS2(=O)=O (stereo unspecified), the Kinact [4] was 4220 nM, the Kinact [10] was 3.89 µM and the Kinact [7] was 3660 nM. It also gave a Kinact [8] of 603 nM, a Kinact [11] of 427 nM and a Kinact [9] of 4100 nM. The Kinact [12] was 367 nM and the Kinact [13] was 355 nM.
